# Reference: patent publication US20100210559A1, “TRAP-14 AS A THERAPEUTIC AGENT” (priority 2007, published 2010)
# No end group written: not given here.
# Experiments:
# HIV-1IIIB = assay: HIV-1 antiviral assay (CPE reduction, MTS); format: cell-based; conditions: peptide 10 micrograms per ml, 6 days post-infection
# Streptococcus pneumoniae = format: cell-based; conditions: 5 micrograms per ml
# Pseudomonas aeruginosa = format: cell-based; conditions: 5 micrograms per ml
# in vitro = conditions: human, HepG2-2.2.15 cells
# Protocol: HepG2-2.2.15 cells were plated in 96-well microtiter plates. After 16-24 hours the confluent monolayer of HepG2-2.2.15 cells was washed and the medium was replaced with complete medium containing test peptide—10 micrograms per ml—in duplicate. […] Three days later the culture medium was replaced with fresh medium containing the peptide. […] A novel dye uptake assay was then employed to measure cell viability, which is used to calculate toxicity (% cell control).
# MRSA = conditions: 5 micrograms per ml
# [1] = Cytotoxicity in CEM-SS cells (MTS cell viability); conditions: human
# [2] = Cytotoxicity in MRC-5 cells (CellTiter 96); conditions: human
Compound,% CPE reduction in HIV-1 infected CEM-SS cells (HIV-1IIIB) [%],% inhibition (Streptococcus pneumoniae) [%],% inhibition (Pseudomonas aeruginosa) [%],"viability at 144 h, 10 micrograms per ml (in vitro) [%]",% inhibition (MRSA) [%],viability at 10 micrograms per ml [1] [%],viability at 144 h [2] [%]
Cc1cn([C@H]2C[C@H](N=[N+]=[N-])[C@@H](CO)O2)c(=O)[nH]c1=O [AZT],99,,,,,,
SFLLRNPNDKYEPF-OH [TRAP-14],,0.0,0.0,84.5,0.0,100,100
